Data from US20110098300A1, “Compounds Comprising A Cyclobutoxy Group” (UCB PHARMA, S.A., priority 2008, published 2011).

With `O=C(c1ccc(O[C@H]2C[C@H](N3CCCCC3)C2)cc1)N1CCOCC1` [Compound 1, 4-{4-[(trans-3-piperidin-1-ylcyclobutyl)oxy]benzoyl}morpholine] the melting point was 135 to 136 °C. Compound `O=C(c1ccc(O[C@H]2C[C@H](N3CCCCC3)C2)cc1)N1CCC(F)(F)CC1` [Compound 2, 4,4-difluoro-1-{4-[(trans-3-piperidin-1-ylcyclobutyl)oxy]benzoyl}piperidine] has a melting point of 145 to 146 °C. In the case of `O=C(c1ccc(O[C@H]2C[C@H](N3CCCCC3)C2)cc1)N1CCCCC1` [Compound 3, 1-{trans-3-[4-(piperidin-1-ylcarbonyl)phenoxy]cyclobutyl}piperidine], the melting point is reported as 101.1 to 102.2 °C. Compound `CC(C)N1CCN(C(=O)c2ccc(O[C@H]3C[C@H](N4CCCCC4)C3)cc2)CC1` [Compound 4, 1-isopropyl-4-{4-[(trans-3-piperidin-1-ylcyclobutyl)oxy]benzoyl}piperazine] has a melting point of 98.5 to 99 °C. `O=C(c1ccc(O[C@H]2C[C@H](N3CCCCC3)C2)cc1)N1CCC(O)CC1` [Compound 5, 1-{4-[(trans-3-piperidin-1-ylcyclobutyl)oxy]benzoyl}piperidin-4-ol] gave a melting point of 57.4 to 57.8 °C. With `O=C(c1ccc(O[C@H]2C[C@H](N3CCCCC3)C2)cc1)N1CCS(=O)(=O)CC1` [Compound 8, 4-{4-[(trans-3-piperidin-1-ylcyclobutyl)oxy]benzoyl}thiomorpholine 1,1-dioxide] the melting point was 186.5 to 186.9 °C. Work on `O=C(c1ccc(O[C@H]2C[C@H](N3CCCCC3)C2)cc1)N1CCC(F)(F)C1` [Compound 9, 1-(trans-3-{4-[(3,3-difluoropyrrolidin-1-yl)carbonyl]phenoxy}cyclobutyl)piperidine] yielded a melting point of 115.2 to 115.8 °C. Compound `CC(=O)N1CCN(C(=O)c2ccc(O[C@H]3C[C@H](N4CCCCC4)C3)cc2)CC1` [Compound 10, 1-acetyl-4-{4-[(trans-3-piperidin-1-ylcyclobutyl)oxy]benzoyl}piperazine] has a melting point of 159.2 to 159.8 °C. Compound `O=C(c1ccc(O[C@H]2C[C@H](N3CCCCC3)C2)cc1)N1CC(O)C1` [Compound 11, 1-{4-[(trans-3-piperidin-1-ylcyclobutyl)oxy]benzoyl}azetidin-3-ol] has a melting point of 82.2 to 82.4 °C. Work on `O=C(Nc1cnccc1Cl)c1ccc(O[C@H]2C[C@H](N3CCCCC3)C2)cc1` [Compound 12, N-(4-chloropyridin-3-yl)-4-[(trans-3-piperidin-1-ylcyclobutyl)oxy]benzamide] yielded a melting point of 151.6 °C. Work on `O=C(NCC(F)(F)F)c1ccc(O[C@H]2C[C@H](N3CCCCC3)C2)cc1` [Compound 13, 4-[(trans-3-piperidin-1-ylcyclobutyl)oxy]-N-(2,2,2-trifluoroethyl)benzamide] yielded a melting point of 152.9 to 153.4 °C.
